Reference: patent US6709851B1, “Stabilization of helicobacter urease” (OraVax-Merieux Co., priority 1997, dated 2004)
Entries after “also recorded” stand apart in the source; their conditions may differ. Like-named read-outs stand apart in the source and are kept apart here.

Key:
[1] = molecular target: T1, recombinant H. pylori apourease (Helicobacter pylori, UniProt P69996); format: biochemical; conditions: for activation of modified urease after removal of excess modifying agent: excess agent removed by diafiltration; for activation with Ni++ and bicarbonate of urease modified by the compound: urease modified before activation
[2] = molecular target: T1, recombinant H. pylori apourease; format: biochemical; conditions: for effect of imidazole on activation by Ni++ and bicarbonate: imidazole 2.5-25 mM, 200 mM bicarbonate, 200 μM Ni++
[3] = Molecular stability and aggregation of urease by analytical size exclusion HPLC; conditions: for effect of blocking free sulfhydryl groups on molecular association of urease: treated urease in solution or dialyzed in PBS; for effect of additive on molecular association of urease: dialysis against PBS and storage at 4° C.
[4] = molecular target: in vitro activated urease (Helicobacter pylori, UniProt P69996); format: biochemical
[5] = compound added along with activation buffer

T1 sequence (P69996 whole entry, looked up): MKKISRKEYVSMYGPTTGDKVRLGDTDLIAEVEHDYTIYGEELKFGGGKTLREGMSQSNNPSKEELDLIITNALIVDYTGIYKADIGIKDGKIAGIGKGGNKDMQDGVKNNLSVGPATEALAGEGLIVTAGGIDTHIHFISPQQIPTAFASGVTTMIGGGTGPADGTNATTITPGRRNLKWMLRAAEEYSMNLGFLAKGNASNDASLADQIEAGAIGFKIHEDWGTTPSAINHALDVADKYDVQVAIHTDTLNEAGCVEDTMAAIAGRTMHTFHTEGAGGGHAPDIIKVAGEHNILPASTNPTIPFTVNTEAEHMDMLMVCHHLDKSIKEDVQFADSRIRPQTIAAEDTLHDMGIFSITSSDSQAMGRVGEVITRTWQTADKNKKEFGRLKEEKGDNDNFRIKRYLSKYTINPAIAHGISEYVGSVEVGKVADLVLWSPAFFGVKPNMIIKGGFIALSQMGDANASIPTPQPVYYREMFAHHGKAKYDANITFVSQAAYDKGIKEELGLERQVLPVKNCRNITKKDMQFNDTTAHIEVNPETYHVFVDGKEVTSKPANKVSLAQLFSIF
in vitro activated urease, sequence (P69996 whole entry, looked up): as above

SMILES: [Co+2] [Co^++]
- activation of recombinant urease by metal ion with bicarbonate [1]: do not cause urease activation
- effect of other metal ion on activation of recombinant urease by Ni++ [1]: inhibit activation

SMILES: [Cu+2] [Cu^++]
- effect of other metal ion on activation of recombinant urease by Ni++ [1]: inhibited activation; also recorded: antagonistic effects
- effect of other metal ion on Ni++ activation by native PAGE and silver staining [2]: inhibitory effect

SMILES: O=[N+]([O-])c1ccc(F)c([N+](=O)[O-])c1 [DNFB, dinitrofluorobenzene]
- activation with compound included in the activation mixture [1]: activation is blocked
- in vitro activation after DNFB treatment for 5, 15, 30, and 60 minutes [1]: blocks in vitro activation
- pH dependence of DNFB blocking of in vitro activation [1]: more effective at alkaline pH (pH>7.5) than at neutral or acidic pH; also recorded: pH-dependent
- in vitro activation of apourease modified with DNFB ([1]; pH 8): blocked in vitro activation; also recorded: not activated
- effect of DNFB treatment on molecular stability ([3]; dialyzed against phosphate buffer overnight): stabilizes the hexameric form of urease
- effect of DNFB on pre-activated urease activity [4]: inactivates pre-activated urease in a pH-dependent manner

SMILES: O=C(O)c1cc(SSc2ccc([N+](=O)[O-])c(C(=O)O)c2)ccc1[N+](=O)[O-] [DTNB, 5-5′-dithio-bis-2-nitrobenzoic acid]
- activation with compound included in the activation mixture [1, 5]: blocking of activation
- activation of modified urease after removal of excess modifying agent [1]: not activated
- activation with Ni++ and bicarbonate of urease modified by the compound [1]: not activated
- effect of blocking free sulfhydryl groups on molecular association of urease [3]: stabilizing effect on urease in solution; also recorded: reduce the molecular associations; also recorded: stabilized the hexamer form of urease and prevented molecular association

SMILES: O=C(O)CN(CCN(CC(=O)O)CC(=O)O)CC(=O)O [EDTA]
- effect of additive on molecular association of urease [3]: did not have any significant effect

SMILES: [Fe+2] [Fe^++]
- effect of other metal ion on activation of recombinant urease by Ni++ [1]: inhibited activation; also recorded: antagonistic effects
- effect of other metal ion on Ni++ activation by native PAGE and silver staining [2]: inhibitory effect

SMILES: [Mg+2] [Mg^++]
- effect of other metal ion on activation of recombinant urease by Ni++ [1]: no detectable effect

SMILES: [Mn+2] [Mn^++]
- activation of recombinant urease by metal ion with bicarbonate [1]: resulted in activation of urease
- effect of other metal ion on activation of recombinant urease by Ni++ [1]: enhanced the activation; also recorded: synergistic effect

SMILES: CCN1C(=O)C=CC1=O [NEM, N-ethyl maleimide]
- activation by bicarbonate and nickel of NEM-modified apourease ([1]; 9 mM NEM, room temperature, 60 minutes, 20 mM Hepes pH 7.5): not activated

SMILES: [Ni+2] [Ni^++]
- activation of recombinant urease by metal ion with bicarbonate [1]: resulted in activation of urease

SMILES: OC[C@H]1O[C@@](CO)(O[C@H]2O[C@H](CO)[C@@H](O)[C@H](O)[C@H]2O)[C@@H](O)[C@@H]1O [Sucrose]
- effect of additive on molecular association of urease [3]: significantly reduced the extent of aggregation

SMILES: c1c[nH]cn1 [imidazole]
- effect of imidazole on activation by Ni++ and bicarbonate [2]: inhibits urease activation
- effect of imidazole on activation by Ni++ and bicarbonate ([2]; listed as Imidazole): inhibit the activation of recombinant urease in a concentration-dependent manner

SMILES: NC(=O)CI [iodoacetamide]
- activation with compound included in the activation mixture [1, 5]: blocking of activation
- activation of modified urease after removal of excess modifying agent [1]: not activated
- activation with Ni++ and bicarbonate of urease modified by the compound [1]: not activated; also recorded: inhibits activation
- effect of blocking free sulfhydryl groups on molecular association of urease [3]: stabilizing effect on urease in solution; also recorded: reduce the molecular associations; also recorded: stabilized the hexameric form of urease and prevented molecular association

SMILES: OCCS [β-mercaptoethanol]
- effect of additive on molecular association of urease [3]: stabilized urease in the hexameric form; also recorded: prevented the molecular associations
